Results reported in patent publication US10233173B2, “Substituted 1,2,3-triazoles as NR2B-selective NMDA modulators” (JANSSEN PHARMACEUTICA NV, priority 2016, dated 2019).

Biological target: human GluN1/GluN2B NMDA receptors (Homo sapiens, UniProt Q05586+Q13224)
Assay: Cell-based calcium flux (FLIPR) assay on cloned human NR1/NR2B ion channels expressed in mammalian cells
Conditions: standard assay; glutamate at ~EC80; FLIPR calcium flux
In short: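 Calcium influx followed by FLIPR fluorescence after 5 min compound exposure and a further 5 min co-agonist challenge: 10 μM glycine with glutamate at ~EC80 (standard) or EC40 (HTS).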

Sequence of human GluN1/GluN2B NMDA receptors (Q13224 27-1484, other chains not shown): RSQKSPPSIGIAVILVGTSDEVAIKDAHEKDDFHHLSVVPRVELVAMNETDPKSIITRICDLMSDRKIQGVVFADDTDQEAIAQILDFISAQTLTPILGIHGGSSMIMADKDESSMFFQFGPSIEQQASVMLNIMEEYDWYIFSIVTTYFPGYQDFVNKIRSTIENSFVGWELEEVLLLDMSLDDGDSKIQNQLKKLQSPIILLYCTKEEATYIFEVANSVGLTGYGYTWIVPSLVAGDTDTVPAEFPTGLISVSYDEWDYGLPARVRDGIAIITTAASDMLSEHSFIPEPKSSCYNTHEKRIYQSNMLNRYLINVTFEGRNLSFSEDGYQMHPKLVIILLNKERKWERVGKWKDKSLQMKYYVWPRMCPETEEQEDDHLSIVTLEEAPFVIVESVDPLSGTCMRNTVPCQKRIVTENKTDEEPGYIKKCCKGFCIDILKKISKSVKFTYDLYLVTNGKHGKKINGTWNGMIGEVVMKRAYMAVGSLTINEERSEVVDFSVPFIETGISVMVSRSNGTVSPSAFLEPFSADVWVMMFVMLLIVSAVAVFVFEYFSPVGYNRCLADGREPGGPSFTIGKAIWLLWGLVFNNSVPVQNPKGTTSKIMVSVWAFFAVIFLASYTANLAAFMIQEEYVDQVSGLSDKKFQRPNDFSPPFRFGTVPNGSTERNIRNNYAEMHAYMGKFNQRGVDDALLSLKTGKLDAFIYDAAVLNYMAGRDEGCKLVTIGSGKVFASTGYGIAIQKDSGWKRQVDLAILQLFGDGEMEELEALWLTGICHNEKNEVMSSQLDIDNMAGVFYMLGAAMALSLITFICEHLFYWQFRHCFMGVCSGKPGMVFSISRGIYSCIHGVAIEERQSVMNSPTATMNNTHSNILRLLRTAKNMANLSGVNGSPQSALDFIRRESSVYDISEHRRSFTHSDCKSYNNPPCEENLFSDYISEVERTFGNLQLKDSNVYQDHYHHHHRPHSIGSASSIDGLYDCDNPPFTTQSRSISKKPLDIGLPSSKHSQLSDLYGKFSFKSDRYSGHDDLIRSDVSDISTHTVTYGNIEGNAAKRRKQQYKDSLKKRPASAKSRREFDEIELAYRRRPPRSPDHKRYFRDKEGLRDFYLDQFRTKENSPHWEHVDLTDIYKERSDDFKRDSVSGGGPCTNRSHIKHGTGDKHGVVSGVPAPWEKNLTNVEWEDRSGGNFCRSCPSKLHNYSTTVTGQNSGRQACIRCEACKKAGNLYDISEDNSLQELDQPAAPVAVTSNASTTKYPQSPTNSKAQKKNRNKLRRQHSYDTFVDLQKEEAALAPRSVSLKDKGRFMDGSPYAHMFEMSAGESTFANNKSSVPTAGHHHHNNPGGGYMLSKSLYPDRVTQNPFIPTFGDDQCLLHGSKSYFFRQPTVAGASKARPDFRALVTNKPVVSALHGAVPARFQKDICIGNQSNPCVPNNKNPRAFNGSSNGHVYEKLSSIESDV

Row | Compound | IC50
1 | Cc1c(F)ccc(-n2cc(COc3nccc(C4CC4)n3)nn2)c1F [Example 648, 4-Cyclopropyl-2-[[1-(2,4-difluoro-3-methyl-phenyl)triazol-4-yl]methoxy]pyrimidine] | 0.592 µM
2 | CN(C)c1ccnc(OCc2cn(-c3ccc(F)c(C(F)F)c3)nn2)n1 [Example 415, 2-[[1-[3-(Difluoromethyl)-4-fluoro-phenyl]triazol-4-yl]methoxy]-N,N-dimethyl-pyrimidin-4-amine] | 0.008 µM
3 | Cc1cc(-n2cc(COc3ncc(Cl)c(C)n3)nn2)c(F)cc1F [Example 657, 5-Chloro-2-[[1-(2,4-difluoro-5-methyl-phenyl)triazol-4-yl]methoxy]-4-methyl-pyrimidine] | 0.781 µM
4 | FC(F)c1cc(-n2cc(COc3nccc(C4CC4)n3)nn2)ccc1Cl [Example 631, 2-[[1-[4-Chloro-3-(difluoromethyl)phenyl]triazol-4-yl]methoxy]-4-cyclopropyl-pyrimidine] | 0.042 µM
5 | CC(F)(F)c1cc(-n2cc(COc3ncc(N4CC(F)C4)cn3)nn2)ccc1F [Example 589, 2-((1-(3-(1,1-Difluoroethyl)-4-fluorophenyl)-1H-1,2,3-triazol-4-yl)methoxy)-5-(3-fluoroazetidin-1-yl)pyrimidine] | 0.013 µM
6 | Cc1cnc(OCc2cn(-c3ccc(C)c(OC(F)F)c3)nn2)nc1 [Example 524, 2-[[1-[3-(Difluoromethoxy)-4-methyl-phenyl]triazol-4-yl]methoxy]-5-methyl-pyrimidine] | 0.028 µM
7 | Cc1cc(-n2cc(COc3nccc(N)n3)nn2)ccc1F [Example 472, 2-[[1-(4-Fluoro-3-methyl-phenyl)triazol-4-yl]methoxy]pyrimidin-4-amine] | 0.149 µM
8 | Cc1c(COc2ncc(C3CC3)cn2)nnn1-c1ccc(F)c(C(C)(F)F)c1 [Example 594, 5-Cyclopropyl-2-[[1-[3-(1,1-difluoroethyl)-4-fluoro-phenyl]-5-methyl-triazol-4-yl]methoxy]pyrimidine] | 0.171 µM
9 | CN(C)c1ccnc(OCc2cn(-c3ccc(F)c(C(C)(F)F)c3)nn2)n1 [Example 582, 2-[[1-[3-(1,1-Difluoroethyl)-4-fluoro-phenyl]triazol-4-yl]methoxy]-N,N-dimethyl-pyrimidin-4-amine] | 0.028 µM
10 | CC(F)(F)c1cc(-n2cc(COc3ncc(C#N)cn3)nn2)ccc1F [Example 583, 2-[[1-[3-(1,1-Difluoroethyl)-4-fluoro-phenyl]triazol-4-yl]methoxy]pyrimidine-5-carbonitrile] | 0.067 µM
11 | CC(F)(F)c1cc(-n2cc(COc3ccccn3)nn2)ccc1F [Example 554, 2-[[1-[3-(1,1-Difluoroethyl)-4-fluoro-phenyl]triazol-4-yl]methoxy]pyridine] | 1.64 µM
12 | COCc1ccnc(OCc2cn(-c3ccc(F)c(C)c3)nn2)n1 [Example 479, 2-[[1-(4-Fluoro-3-methyl-phenyl)triazol-4-yl]methoxy]-4-(methoxymethyl)pyrimidine] | 0.036 µM
13 | CNc1ccnc(OCc2cn(-c3ccc(Cl)c(C(C)(F)F)c3)nn2)n1 [Example 548, 2-[[1-[4-Chloro-3-(1,1-difluoroethyl)phenyl]triazol-4-yl]methoxy]-N-methyl-pyrimidin-4-amine] | 0.055 µM
14 | Fc1ccc(-n2cc(COc3cnc(-c4cccs4)cn3)nn2)cc1OC(F)F [Example 397, 2-[[1-[3-(Difluoromethoxy)-4-fluoro-phenyl]triazol-4-yl]methoxy]-5-(2-thienyl)pyrazine] | 10.7 µM
15 | Cc1nc(OCc2cn(-c3ccc(F)c(C(F)(F)F)c3)nn2)ncc1Cl [Example 444, 5-Chloro-2-[[1-[4-fluoro-3-(trifluoromethyl)phenyl]triazol-4-yl]methoxy]-4-methyl-pyrimidine] | 0.013 µM

Same assay, conditions: standard assay; human GluN1/GluN2B, calcium flux (FLIPR), glutamate ~EC80

Row | Compound | IC50
16 | Fc1ccc(-n2cc(COc3ncccn3)nn2)cc1OC(F)F [Example 33, 2-[[1-[3-(Difluoromethoxy)-4-fluoro-phenyl]triazol-4-yl]methoxy]pyrimidine] | 0.018 µM
17 | CC(Oc1ncccn1)c1cn(-c2ccc(Cl)c(OC(F)F)c2)nn1 (single isomer, unassigned) [Example 55, (S*)-2-[1-[1-[4-Chloro-3-(difluoromethoxy)phenyl]triazol-4-yl]ethoxy]pyrimidine] | 0.008 µM
18 | OCc1ccnc(OCc2cn(-c3cccc(C(F)F)c3)nn2)n1 [Example 159, [2-[[1-[3-(Difluoromethyl)phenyl]triazol-4-yl]methoxy]pyrimidin-4-yl]methanol] | 0.408 µM
19 | Cc1ccnc(OCc2cn(-c3cccc(OC(F)(F)F)c3)nn2)n1 [Example 347, 4-Methyl-2-[[1-[3-(trifluoromethoxy)phenyl]triazol-4-yl]methoxy]pyrimidine] | 0.137 µM
20 | FC(F)c1cnc(OCc2cn(-c3cccc(C(F)(F)F)c3)nn2)nc1 [Example 289, 5-(Difluoromethyl)-2-[[1-[3-(trifluoromethyl)phenyl]triazol-4-yl]methoxy]pyrimidine] | 0.037 µM
21 | Cc1cnc(OCc2cn(-c3ccc(Cl)c(C(F)F)c3)nn2)nc1 [Example 31, 2-[[1-[4-Chloro-3-(difluoromethyl)phenyl]triazol-4-yl]methoxy]-5-methyl-pyrimidine] | 0.001 µM
22 | Cc1cnc(OCc2cn(-c3ccnc(C)c3)nn2)nc1 [Example 175, 5-Methyl-2-[[1-(2-methyl-4-pyridyl)triazol-4-yl]methoxy]pyrimidine] | 0.655 µM
23 | CCc1cnc(OCc2cn(-c3cccc(C(F)(F)F)c3)nn2)nc1 [Example 287, 5-Ethyl-2-[[1-[3-(trifluoromethyl)phenyl]triazol-4-yl]methoxy]pyrimidine] | 0.005 µM
24 | FC(F)c1cccc(-n2cc(COc3ncc(C(F)(F)F)cn3)nn2)c1 [Example 275, 2-[[1-[3-(Difluoromethyl)phenyl]triazol-4-yl]methoxy]-5-(trifluoromethyl)pyrimidine] | 0.025 µM
25 | CN(C)c1ccnc(OCc2cn(-c3cccc(C(C)(F)F)c3)nn2)n1 [Example 318, 2-[[1-[3-(1,1-Difluoroethyl)phenyl]triazol-4-yl]methoxy]-N,N-dimethyl-pyrimidin-4-amine] | 0.026 µM
26 | Cc1cnc(OCc2cn(-c3cc(C)cc(C)c3)nn2)nc1 [Example 364, 2-[[1-(3,5-Dimethylphenyl)triazol-4-yl]methoxy]-5-methyl-pyrimidine] | 0.027 µM
27 | CC(Oc1ncc(Cl)cn1)c1cn(-c2ccc(Cl)c(OC(F)F)c2)nn1 (racemic) [Example 60, (R/S)-5-Chloro-2-[1-[1-[4-chloro-3-(difluoromethoxy)phenyl]triazol-4-yl]ethoxy]pyrimidine] | 0.032 µM
28 | C[C@@H](Oc1ncccn1)c1cn(-c2ccc(Cl)c(OC(F)F)c2)nn1 [Example 374, 2-[(1R)-1-[1-[4-Chloro-3-(difluoromethoxy)phenyl]triazol-4-yl]ethoxy]pyrimidine] | 0.011 µM
29 | Cc1cnc(OCc2cn(-c3cccc(C(F)F)c3)nn2)nc1N(C)C [Example 281, 2-[[1-[3-(Difluoromethyl)phenyl]triazol-4-yl]methoxy]-N,N,5-trimethyl-pyrimidin-4-amine] | 0.13 µM
30 | Cc1ccnc(OCc2cn(-c3ccc(Cl)c(OC(F)F)c3)nn2)n1 [Example 21, 2-[[1-[4-Chloro-3-(difluoromethoxy)phenyl]triazol-4-yl]methoxy]-4-methyl-pyrimidine] | 0.002 µM
